The values below come from the NIST ThermoML archive (doi:10.1016/j.fluid.2011.03.003).

The structures appear in SMILES notation. ± gives the expanded uncertainty stated by the source.

The conditions of this data set: Liquid, Closed cell (Static) method.

`CCC(=O)OC(C)C` [1-methylethyl propanoate]: the “vapor or sublimation pressure” value (337.66 K) is 24.6 ± 0.09 kPa; the “vapor or sublimation pressure” value (342.61 K) was found to be 29.5 ± 0.11 kPa; the “vapor or sublimation pressure” value (347.62 K) is 35.68 ± 0.13 kPa; the “vapor or sublimation pressure” value (352.67 K) came to 42.43 ± 0.15 kPa; the “vapor or sublimation pressure” value (357.58 K) came to 50.12 ± 0.18 kPa; the “vapor or sublimation pressure” value (362.57 K) was determined as 59 ± 0.2 kPa. In addition, under “382.65 K”, the “vapor or sublimation pressure” value is 101.3 ± 0.3 kPa.

As for `CC(C)O` [propan-2-ol], the “vapor or sublimation pressure” value (355.15 K) is 101.3 ± 1.2 kPa.

Consider `CCC(=O)O` [propanoic acid], for which the “vapor or sublimation pressure” value (413.58 K) stood at 101.3 ± 1.2 kPa.
